Where a name gives a salt, the structure may show the parent alone.
Legend:
[1] = molecular target: T1, Na^+ /H^+ exchanger of rabbit erythrocytes (Oryctolagus cuniculus, UniProt P23791); assay: Inhibition of the Na^+ /H^+ exchanger of rabbit erythrocytes (amiloride-sensitive sodium influx, flame photometry); assay type: cell-based, rabbit (New Zealand White); conditions: pH 7.4, 37° C.
T1 construct: determine the Na^+ influx into the erythrocytes; endogenous in cells; host or cells: erythrocytes of cholesterol-fed New Zealand White rabbits (Ivanovas)
From the text: Inhibition of the Na^+ /H^+ exchanger of rabbit erythrocytes:
New Zealand White rabbits (Ivanovas) were given a standard diet containing 2% cholesterol for six weeks in order to activate Na^+ /H^+ exchange and thus to be able to use flame photometry to determine the Na^+ influx into the erythrocytes via […]. The blood was removed from the aural arteries and rendered incoagulable by the addition of 25 IU of potassium heparin. One part of each sample was used for the duplicate determination of the hematocrit by centrifugation. Aliquots of in each case 100 μl were employed for measuring the initial content of Na^+ in the erythrocytes.
In order to determine the amiloride-sensitive sodium influx, 100 μl of each blood sample were in each case incubated, at pH 7.4 and 37° C., in 5 ml of a hyperosmolar salt/sucrose medium ([…]: 140 NaCl, 3 KCl, 150 sucrose, 0.1 ouabain, 20 tris(hydroxymethyl)aminomethane). The erythrocytes were then washed three times with ice cold MgCl2 /ouabain solution ([…]: 112 MgCl2, 0.1 ouabain) and hemolyzed in 2.0 ml of distilled water. The intracellular content of sodium was determined by flame photometry.
The nett influx of Na^+ was calculated from the difference between the initial sodium values and the sodium content of the erythrocytes following incubation. The amilorideinhibitable sodium influx was given by the difference in the sodium content of the erythrocytes following incubation with and without 3×10-4 mol/l amiloride. The same procedure was also used in the case of the compounds according to the invention.

rat hearts = conditions: isolated rat hearts, cited from earlier work
[2] = cited from earlier work

T1 sequence (P23791 whole entry): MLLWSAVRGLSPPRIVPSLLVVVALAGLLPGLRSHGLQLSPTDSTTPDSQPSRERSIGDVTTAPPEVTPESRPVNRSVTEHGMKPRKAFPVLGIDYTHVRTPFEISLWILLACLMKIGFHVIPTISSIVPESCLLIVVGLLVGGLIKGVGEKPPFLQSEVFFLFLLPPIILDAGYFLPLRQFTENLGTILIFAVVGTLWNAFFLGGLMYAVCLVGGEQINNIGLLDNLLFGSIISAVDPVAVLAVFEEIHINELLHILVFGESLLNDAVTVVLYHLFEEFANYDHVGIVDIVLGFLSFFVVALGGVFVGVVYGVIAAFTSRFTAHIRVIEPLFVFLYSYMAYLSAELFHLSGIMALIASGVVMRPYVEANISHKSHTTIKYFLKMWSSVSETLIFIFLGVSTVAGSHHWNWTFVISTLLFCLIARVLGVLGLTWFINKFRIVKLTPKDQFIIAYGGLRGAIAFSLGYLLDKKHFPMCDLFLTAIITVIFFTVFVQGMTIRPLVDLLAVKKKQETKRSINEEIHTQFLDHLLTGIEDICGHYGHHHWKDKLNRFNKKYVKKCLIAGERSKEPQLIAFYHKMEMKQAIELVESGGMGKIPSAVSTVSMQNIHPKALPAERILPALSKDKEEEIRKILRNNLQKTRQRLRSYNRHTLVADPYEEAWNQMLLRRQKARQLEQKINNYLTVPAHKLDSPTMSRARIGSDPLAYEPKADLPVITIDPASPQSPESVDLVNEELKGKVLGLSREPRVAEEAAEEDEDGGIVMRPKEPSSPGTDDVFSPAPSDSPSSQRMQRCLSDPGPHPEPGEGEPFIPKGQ

IC50 [1] | SMILES | other results
< 1 µM | Cc1nc2ccc(Cl)cc2cc1C(=O)N=C(N)N [Example 8, 6-Chloro-2-methylquinoline-3-carboguanidide hydrochloride] | –
10 µM | NC(N)=NC(=O)c1ccc2cnccc2c1 [Example 4, Isoquinoline-6-carboguanidide] | –

More lines, now with the values behind:

SMILES | IC50 [1] | other results
NC(N)=NC(=O)c1ccc2ccccc2n1 [Example 1, Quinoline-2-carboguanidide Dihydrochloride] | 2 to 3 µM | –
CCN(c1nc(N)c(C(=O)N=C(N)N)nc1Cl)C(C)C [ethylisopropyl amiloride, Ethylisopropylamiloride] | – | potency relative to amiloride against artificially induced ventricular fibrillation (rat hearts; compared with amiloride): even more potent than amiloride
NC(N)=NC(=O)c1nc(Cl)c(N)nc1N [amiloride] | – | suppression of artificially induced ventricular fibrillation (rat hearts; Eur. Heart J. 9 (suppl. 1): 167 (1988)): completely suppress artificially induced ventricular fibrillation; antiarrhythmic effect ([2]; Circulation 79, 1257-63 (1989)): only weakly expressed; accompanying effects undesirable when treating cardiac arrhythmias ([2]; side effects): hypotensive and saluretic effects
NC(N)=NC(=O)c1ccc2ncccc2c1 [Example 3, Quinolin-6-carboguanidide] | 3 to 5 µM | –
NC(N)=NC(=O)c1cnc2ccccc2c1 [Example 2, Quinoline-3-carboguanidide Dihydrochloride] | 1.2 µM | –

From patent US6093729A, “Substituted bicyclic heteroaroylguanidines, a process for their preparation, their use as a medicament or a diagnostic agent, and a medicament containing them” (priority 1994, dated 2000)
